This is an account of results in PubChem BioAssay (NCI).

What all share (assay): DTP human tumour cell line panel, 48 h
Test [1] deals with HL-60(TB) leukemia.
Test [2] deals with NCI/ADR-RES ovarian.
Test [3] relates to NCI-H460 lung.
In test [4] the test system is HOP-62 NSCLC.
Test [5] relates to BT-549 breast.
The test system of test [6] is HCC-2998 colon.
Test [7] has as its system HCT-15 colon.
Test [8] relates to SK-MEL-5 melanoma.
The subject of test [9] is SK-MEL-28 melanoma.
The test system of test [10] is K-562 leukemia.

“And” between values parts separate entries of the source, which are not always exact repeats. Equal values may be shown once.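 Compound exposure: 48 hours, 5 concentrations, 96-well plates. The concentration for 50% growth inhibition is given as GI50. TGI: total growth inhibition.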 Numbered stars: 1 amine (or outer) side, 2 acyl side, 3 side chain; on linkers, the order of the positions; unused ones are H or OH. Bridge positions count the residues as written; N and C are the ends. Square brackets hold non-standard residues; d marks the D form. Peptide text beside a SMILES is read from it. I, II: the chains in the order shown. Actinocin(1to9) = Cc1c2oc3c(C)ccc(C(=O)[*:2])c3nc-2c(C(=O)[*:1])c(N)c1=O; NMeY = CN[CH](Cc1ccc(O)cc1)C(=O)O; Sar = CNCC(=O)O

Consider `COc1ccc2nc3cc(Cl)ccc3c(Nc3cc(CN4CCCC4)c(O)c(CN4CCCC4)c3)c2n1`, for which the GI50 in test [1] is 2.07 µM; in test [2], 1.64 µM; in test [3], 0.638 µM; in test [4], 1.38 µM; in test [5] it was 2.46 µM; in test [6], 1.25 µM. Further, the results for the GI50 in [7], in [8] and in [9] were 1.18 µM, 1.56 µM and 2.15 µM, respectively. Besides, the concentration for total growth inhibition (TGI) amounted to 4.78 µM in [1]; 6.51 µM in [2]; 2.49 µM in [3]; 4.91 µM in test [4]; 5.66 µM in test [5]; 2.91 µM in test [6]. The concentration for total growth inhibition (TGI) in test [7] is 10.6 µM; in test [8], 2.9 µM; in [9], 4.5 µM.
`Cc1cc(O)c(-c2ccc([C@@H](C)CN(C)C)cc2)c2c1[nH]c(=O)c1sccc12`: the GI50 in test [1] was 0.453 µM; in test [2], 2.72 µM; in test [3], 0.335 µM; in test [4], 0.886 µM; in [5] it was 0.574 µM; in [6] it was 1.06 µM. Also, the GI50 in [10] was 0.482 µM; in test [7], 1.42 µM; in test [8], 0.805 µM; in test [9], 1.33 µM. The TGI is 7.38 µM in [1]; 24.1 µM in test [2]; more than 49.1 µM in [3]; 5.57 µM in test [4]; 3.44 µM in [5]; 12.6 µM in test [6]. The TGI in test [10] was more than 60.5 µM; in test [7] it was 31.3 µM; in test [8], 3.98 µM; in test [9], 5.56 µM.
With `CO/N=C(\COc1ccc2oc(-c3ccccc3)cc(=O)c2c1)c1ccc(F)cc1`, the GI50 in test [1] is 27.3 µM; in [2] it was 21 µM; in [4] it was 18.6 µM; in [5], 29.6 µM; in test [6] it was 23.6 µM; in [10], 81.2 µM. Besides, the GI50 in test [7] was 40.2 µM; in test [8], 31.3 µM; in test [9] it was 48.2 µM. The total growth inhibition concentration (TGI) in test [1] was more than 100 µM; in [2] it was 49.9 µM; in test [4] it was 35.2 µM; in test [5], more than 100 µM; in test [6], 54.4 µM; in test [10], more than 100 µM. The concentration for total growth inhibition (TGI) is more than 100 µM in test [7], 93.5 µM in test [8] and more than 100 µM in test [9].
On to `CN(N)c1nc(N)c(C#N)c(C#N)c1C#N`, for which the concentration for total growth inhibition (TGI) in test [1], in test [2], in test [4], in test [5], in test [6] and in test [10] was more than 10 µM in each case. Further, the concentration for total growth inhibition (TGI) in test [7], in test [8] and in [9] was more than 10 µM each time.
As for `CC(C)(C)OC(=O)N[C@@H](Cc1ccccc1)C(=O)N(Cc1ccccc1)C1(C(=O)NCc2ccccc2)CCN(Cc2ccccc2)CC1`, the GI50 is 2.5 µM in test [1]; 2.85 µM in test [2]; 3 µM in [3]; 3.89 µM in [4]; 2.11 µM in [5]; 4.54 µM in [6]. Further, the GI50 in test [10] was 3.39 µM; in test [7] it was 3.16 µM; in [8], 1.73 µM. The total growth inhibition concentration (TGI) is 6.1 µM in test [1]; 46.9 µM in test [2]; 87.6 µM in [3]; more than 100 µM in [4]; 8 µM in test [5]; more than 100 µM in test [6]. Further, the TGI was more than 100 µM in [10], more than 100 µM in test [7] and 3.29 µM in [8].
Turning to `COC(C)C(O)(C(=O)OCC1=CCN2CCC(O)C12)C(C)(C)O` (stereo not drawn), the concentration for total growth inhibition (TGI) in [1], in test [2], in test [3], in [5], in test [6] and in test [7] was more than 100 µM each time. Moreover, the total growth inhibition concentration (TGI) in test [8] and in test [9] was more than 100 µM in each case.
As for `CCCCn1c(=O)c(/C=C/C(=O)/C=C/c2cc3ccccc3n(CCCC)c2=O)cc2ccccc21`, the GI50 was 1.71 µM in [1]; 3.01 µM in test [2]; 1.8 µM in test [3]; 2.27 µM in test [4]; 0.702 µM in test [5]; 1.01 µM in [6]. The results for the GI50 in test [7], in test [8] and in test [9] were 1.29 µM, 1.77 µM and 1.81 µM, respectively. In addition, the TGI in test [1] was 6.63 µM; in test [2], 13.5 µM; in [3] it was 3.49 µM; in test [4], 4.08 µM; in test [5], 2.2 µM; in test [6], 2.26 µM. The values for the TGI in test [7], in [8] and in [9] were 2.87 µM, 3.28 µM and 3.48 µM, respectively.
Consider `COc1ccc(CC2C(=O)OC(C)C(NC(=O)c3c4nc5c(C(=O)NC6C(=O)NC(C(C)C)C(=O)N7CCCC7C(=O)N(C)CC(=O)N(C)C(Cc7ccc(OC)cc7)C(=O)OC6C)ccc(C)c5oc-4c(C)c(=O)c3N)C(=O)NC(C(C)C)C(=O)N3CCCC3C(=O)N(C)CC(=O)N2C)cc1` (stereo not drawn) (I: TVP[Sar][NMeY](Me) / II: TVP[Sar][NMeY](Me); ester I:1-I:C, II:1-II:C; linker I:N-II:N via Actinocin(1to9); configuration not given here), for which the GI50 in test [1] is 0.00154 µM; in test [2] it was 0.0901 µM and > 0.863 µM; in test [3] it was less than 0.01 µM; in test [10] it was < 0.01 µM and 0.0039 µM. The total growth inhibition concentration (TGI) was 0.0515 µM in test [1]; 11.5 µM and > 1 µM in [2]; less than 0.01 µM in [3]; 0.246 µM in test [5]; less than 0.01 µM in test [10]; more than 1 µM in test [7].
For the compound `C=C1C(=O)O[C@H]2C[C@@H]1C(=O)CC(C)CCCC(C)=CCC[C@@]2(C)O` (stereo partly drawn), the TGI in [1], in test [2], in test [3], in test [4], in [5] and in [6] was more than 25 µM throughout. For the same compound, the TGI in test [7], in test [8] and in test [9] was more than 25 µM each time.
